In paper doi:10.1101/2025.10.27.684712v1, “Structure-guided development of a potent human B^0AT1 inhibitor effective in a mouse model of phenylketonuria” (biorxiv, 2025):

How the values were obtained:
[1] = molecular target: T1, mB^0AT1 (mouse SLC6A19) co-expressed with mouse Collectrin (Mus musculus, UniProt Q9D687); assay: inhibition of d5-phenylalanine uptake, LC-MS/MS; assay type: cell-based
T1 construct: mSLC6A19-T2A-mCollectrin synthetic construct, doxycycline-inducible in JTREx-CHO cells; with Collectrin
T1 sequence (Q9D687 1-634): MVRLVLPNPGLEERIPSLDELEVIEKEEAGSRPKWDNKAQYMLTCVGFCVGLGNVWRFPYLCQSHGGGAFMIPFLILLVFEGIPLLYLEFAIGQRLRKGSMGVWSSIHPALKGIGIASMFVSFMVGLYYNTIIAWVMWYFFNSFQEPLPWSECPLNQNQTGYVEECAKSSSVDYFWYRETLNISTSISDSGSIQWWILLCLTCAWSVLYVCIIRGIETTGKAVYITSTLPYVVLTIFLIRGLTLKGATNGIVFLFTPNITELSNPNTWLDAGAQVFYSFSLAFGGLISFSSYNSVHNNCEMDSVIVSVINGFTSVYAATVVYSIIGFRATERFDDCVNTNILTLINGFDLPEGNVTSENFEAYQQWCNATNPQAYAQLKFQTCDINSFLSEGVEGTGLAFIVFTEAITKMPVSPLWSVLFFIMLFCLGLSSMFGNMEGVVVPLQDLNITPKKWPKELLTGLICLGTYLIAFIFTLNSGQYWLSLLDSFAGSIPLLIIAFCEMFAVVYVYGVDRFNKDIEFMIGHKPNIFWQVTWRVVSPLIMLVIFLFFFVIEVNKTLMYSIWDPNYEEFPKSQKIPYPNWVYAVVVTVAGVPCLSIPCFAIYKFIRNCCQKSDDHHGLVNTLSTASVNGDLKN
T1 sequence (Q9ESG4 15-222 partner): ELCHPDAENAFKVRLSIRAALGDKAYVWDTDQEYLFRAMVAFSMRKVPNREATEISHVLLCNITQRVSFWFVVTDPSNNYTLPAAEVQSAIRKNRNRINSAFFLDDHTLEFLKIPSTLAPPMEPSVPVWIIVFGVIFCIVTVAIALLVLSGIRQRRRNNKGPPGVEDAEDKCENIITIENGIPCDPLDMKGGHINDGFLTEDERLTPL

hB^0AT1-ACE2 complex = molecular target: T2, hB^0AT1-ACE2 complex (Homo sapiens, UniProt Q695T7); assay: binding to crude membranes, filtration and LC-MS/MS
T2 construct: gene SLC6A19; wild type; N-terminal FLAG on B0AT1, Strep-tag after ACE2 signal peptide; FreeStyle 293-F; with Angiotensin-converting enzyme 2
T2 sequence (Q9BYF1 18-805 partner, one chain of several): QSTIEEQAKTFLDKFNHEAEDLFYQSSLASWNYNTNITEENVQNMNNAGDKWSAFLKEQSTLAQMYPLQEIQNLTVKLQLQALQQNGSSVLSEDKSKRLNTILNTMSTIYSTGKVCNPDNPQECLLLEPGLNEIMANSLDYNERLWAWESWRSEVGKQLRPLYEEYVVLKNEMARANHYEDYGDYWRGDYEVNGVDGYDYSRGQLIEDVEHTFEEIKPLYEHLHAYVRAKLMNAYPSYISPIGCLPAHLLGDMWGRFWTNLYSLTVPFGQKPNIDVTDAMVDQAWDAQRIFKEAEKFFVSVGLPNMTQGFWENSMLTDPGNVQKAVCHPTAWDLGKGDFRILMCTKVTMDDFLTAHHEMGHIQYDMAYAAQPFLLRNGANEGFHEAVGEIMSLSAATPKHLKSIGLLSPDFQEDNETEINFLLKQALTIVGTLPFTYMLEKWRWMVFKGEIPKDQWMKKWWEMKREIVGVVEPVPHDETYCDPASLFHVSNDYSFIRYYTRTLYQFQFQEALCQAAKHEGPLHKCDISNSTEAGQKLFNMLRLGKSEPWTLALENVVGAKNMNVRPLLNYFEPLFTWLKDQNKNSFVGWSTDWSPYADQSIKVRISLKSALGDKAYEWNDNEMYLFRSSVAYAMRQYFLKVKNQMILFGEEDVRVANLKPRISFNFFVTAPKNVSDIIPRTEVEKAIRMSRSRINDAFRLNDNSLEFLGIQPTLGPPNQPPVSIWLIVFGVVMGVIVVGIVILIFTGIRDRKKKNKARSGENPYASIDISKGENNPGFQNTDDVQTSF

[2] = molecular target: T3, hB^0AT1 (human SLC6A19) co-expressed with human Collectrin (Homo sapiens, UniProt Q695T7); assay: inhibition of d5-phenylalanine uptake, LC-MS/MS; assay type: cell-based
T3 construct: hSLC6A19-T2A-hCollectrin synthetic construct, wild type, doxycycline-inducible in JTREx-CHO cells; with Collectrin
T3 sequence (Q695T7 1-634): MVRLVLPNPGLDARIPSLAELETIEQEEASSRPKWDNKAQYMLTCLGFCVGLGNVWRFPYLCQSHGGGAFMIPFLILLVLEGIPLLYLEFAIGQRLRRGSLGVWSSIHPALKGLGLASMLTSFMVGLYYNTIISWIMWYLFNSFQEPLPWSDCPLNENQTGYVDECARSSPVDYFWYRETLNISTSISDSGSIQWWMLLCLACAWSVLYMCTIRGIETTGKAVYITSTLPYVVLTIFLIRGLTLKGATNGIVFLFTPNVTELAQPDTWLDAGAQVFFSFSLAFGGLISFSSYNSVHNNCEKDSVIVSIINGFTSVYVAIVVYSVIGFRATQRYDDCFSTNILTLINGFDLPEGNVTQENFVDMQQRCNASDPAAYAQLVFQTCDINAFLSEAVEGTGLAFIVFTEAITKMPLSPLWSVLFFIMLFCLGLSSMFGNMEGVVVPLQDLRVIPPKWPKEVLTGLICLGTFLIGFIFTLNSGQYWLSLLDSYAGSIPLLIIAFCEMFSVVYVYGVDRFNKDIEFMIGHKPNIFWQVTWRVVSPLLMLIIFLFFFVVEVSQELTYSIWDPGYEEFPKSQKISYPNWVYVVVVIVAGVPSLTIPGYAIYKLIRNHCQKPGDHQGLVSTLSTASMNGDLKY
T3 sequence (Q9HBJ8 15-222 partner): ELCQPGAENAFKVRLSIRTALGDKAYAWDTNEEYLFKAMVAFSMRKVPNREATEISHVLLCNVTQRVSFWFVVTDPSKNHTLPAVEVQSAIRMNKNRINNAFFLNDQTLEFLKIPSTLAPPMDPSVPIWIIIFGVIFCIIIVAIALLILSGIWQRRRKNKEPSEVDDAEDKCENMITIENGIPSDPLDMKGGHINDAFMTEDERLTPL

[3] = molecular target: T3, hB^0AT1 (human SLC6A19) co-expressed with human Collectrin; assay: d5-phenylalanine uptake kinetics, LC-MS/MS; assay type: cell-based; conditions: labelled compound; 100 mM NaCl, pH 7.4, 37 °C, no inhibitor

Molecule | IC50 [1] [µM] | Kd (hB^0AT1-ACE2 complex) [µM] | IC50 [2] [µM] | Km [3] [µM]
CCNC(=O)/C=C/c1cccc(Br)c1 [compound 1, Cinromide] | > 10 | 0.472 | 0.97 | –
CN(C)C(=O)CNC(=O)/C=C/c1ccc(C(F)(F)F)cc1 [compound 2] | 1.98 | 0.14 | 5.5 | –
O=C(/C=C/c1ccc(C(F)(F)F)cc1)NCC(=O)N1CCNC(=O)C1 [compound 3] | 0.295 | 0.047 | 0.513 | –
d5-phenylalanine | – | – | – | 866 ± 144
